Experimental findings from patent publication US20080118573A1, “Use of Heavy Metals in the Treatment of Biofilms” (priority 2004, published 2008) are described below.

What all share (type): cell-based
Assay [1] has as its system Staphylococcus aureus ATCC 29213 planktonic and biofilm bacteria. Put plainly: MBEC-HTP antibiotic susceptibility, S. aureus. The following applies: CA-MHB, 24 h exposure; for MIC: S. aureus ATCC 29213; for MBEC: S. aureus ATCC 29213 biofilm; for MBC: S. aureus ATCC 29213 planktonic. The protocol:
(§1) Luria-Bertani medium was chosen for two reasons: 1) its established use in studies of metal resistance, and 2) because of the use of rich media in NCCLS testing protocols for antimicrobial resistance. Antibiotic resistance assays were performed using cation-adjusted Mueller-Hinton broth (CA-MHB, BDH Inc.) and subcultures, MBC and MBEC bacterial counts were performed using trypticase soy agar (TSA, Difco).
(§2) The present study used a novel high throughput method for screening biofilm susceptibility to metal cations and oxyanions: the MBEC device (MBEC Bioproducts Inc., Edmonton, Alberta, Canada, http://www.mbec.ca). The MBEC high throughput (MBEC-HTP) assay system consists of a shallow trough into which a plastic lid with 96 pegs fits. This peg lid also fits over a standard 96-well microtitre plate which can subsequently be used to setup serial dilutions of antimicrobial compounds. The bottom half of the MBEC device is a trough that has shallow channels that direct flow of an inoculated suspension over the pegs on the lid.
(§3) The inoculum was standardized to a 1.0 McFarland standard and verified by viable counts. The 1.0 McFarland standard inoculum was diluted 30-fold with growth media, which served as the growth suspension to inoculate the MBECJ device.
(§4) P. aeruginosa was incubated for 9 h, S. aureus for 24 h and E. coli for 24 h to generate approximately equivalent biofilms of 6.0×10^6 cfu/peg. Following the incubation period, growth of biofilm and planktonic cultures in the MBECJ device were discerned and verified by viable cell counts.
(§5) Chloramphenicol (Sigma) was prepared in 50% ethanol and treated identically to the other antibiotics. 10% ethanol was added to the growth controls for chloramphenicol assays. […] Starting with the working solutions, serial two-fold dilutions were made in the wells of a 96-well plate (the challenge plate), leaving the first well of each row as a sterility control and the second as a growth control (i.e. no antibiotic).

Assay [2] has as its system Pseudomonas aeruginosa biofilms. Put plainly: Metal and antibiotic combination assay. The following applies: median of 4 replicates. On the procedure:
Cells were grown to a mean density of 6.0×10^6 cfu/peg in LB+B1 media.
• 1. […] All data are median values based on 4 replicates.

Assay [3] concerns Pseudomonas aeruginosa ATCC 27853 planktonic and biofilm bacteria. Put plainly: MBEC-HTP antibiotic susceptibility, P. aeruginosa. The following applies: CA-MHB, 24 h exposure; for MIC: P. aeruginosa ATCC 27853; for MBEC: P. aeruginosa ATCC 27853 biofilm; for MBC: P. aeruginosa ATCC 27853 planktonic. The protocol:
as §1, §2, §3, §4, §5

For assay [4], the system named is Pseudomonas aeruginosa ATCC 27853 planktonic and biofilm cultures. The following applies: for Fold Tolerance (MBEC:MBC100) / MBEC / MBC100: MSVP; for MBEC: biofilm; for MIC: minimal media (MSVP), did not change with exposure time, mean ± SD of 28 trials; for MBC100: planktonic.
Assay [5] concerns Pseudomonas aeruginosa ATCC 27853 cell populations. The following applies: 27 hours exposure.
Assay [6] relates to Pseudomonas aeruginosa ATCC 27853 planktonic and biofilm cultures. To be noted: for Fold Tolerance (MBEC:MBC100) / MBEC / MBC100: LB+B1; for MBEC: biofilm; for MBC100: planktonic; for MIC: rich media (LB+B1), 4 replicates.
The subject of assay [7] is Pseudomonas aeruginosa 15442. Put plainly: Synergy matrix assay of polycide versus metals. To be noted: adding as little as 16 micrograms per ml of the metal.
For assay [8], the system named is Escherichia coli JM109 planktonic and biofilm bacteria. The following applies: LB+B1, 24 h exposure.
In assay [9] the test system is Pseudomonas aeruginosa ATCC 27853 planktonic and biofilm bacteria. To be noted: LB+B1, 24 h exposure.
The subject of assay [10] is Staphylococcus aureus ATCC 29213 planktonic and biofilm bacteria. To be noted: LB+B1, 24 h exposure.
Assay [11] concerns Escherichia coli JM109 planktonic and biofilm bacteria. Nature of the assay: MBEC-HTP antibiotic susceptibility, E. coli. To be noted: CA-MHB, 24 h exposure. On the procedure: as §1, §2, §3, §4, §5
The mark [12] stands for this setting: antibiotic in combination with 500 μg/ml Zn^2+.
Setting [13] is: antibiotic or heavy metal alone, LB+B1.

Converted amounts (≈) assume the structure as drawn. Like-named read-outs stand apart in the source and are kept apart here.

For Gentamicin, the MIC was less than 2 µg/mL in assay [1], 64 µg/mL in [2] (setting [12]), 8 µg/mL in [2] (setting [13]) and 10 ± 4 µg/mL in [3]. The MBEC was 3.5 ± 1 µg/mL in assay [1], greater than 1024 µg/mL in assay [2] (setting [13]) and greater than 1024 µg/mL in [3]. The MBC in assay [1] was 4 ± 0 µg/mL; in [2] (setting [12]) it was 128 µg/mL; in assay [2] (setting [13]) it was 32 µg/mL; in [3] it was 28 ± 8 µg/mL.

Turning to `[Cl-].[Cl-].[Co+2]` [Co^2+, cobalt (II) chloride], the “Fold Tolerance (MBEC:MBC100)” value in assay [4] (exposure time 2 to 6 h) is on record as 2.0; in assay [4] (exposure time 2 h) it was “at least 2”; in assay [4] (exposure time 8 h), 1.3; in [4] (exposure time 10 h) it was 1.2; in assay [4] (exposure time 27 h), 1.0; in assay [6] (exposure time 2 h), 2.7. Besides, in [6] (exposure time 27 h), the “Fold Tolerance (MBEC:MBC100)” value is on record as 2.0. The MBEC entry in assay [4] (exposure time 2 to 6 h) is listed as “≧278 mM”; in assay [4] (exposure time 8 h) it was 139 ± 0 mM; in assay [4] (exposure time 10 h) it was 209 ± 80 mM; in assay [4] (exposure time 27 h) it was 116 ± 36 mM; in assay [6] (exposure time 2 h) it was “≧280 mM”; in assay [6] (exposure time 27 h) it was “≧280 mM”. The MIC came out at 2.0 ± 0.8 mM in assay [4] and 7.6 ± 2.2 mM in assay [6]. In addition, the MBC100 in [4] (exposure time 2 to 6 h) amounted to 139 ± 0 mM; in assay [4] (exposure time 8 h), 104 ± 40 mM; in [4] (exposure time 10 h) it was 174 ± 70 mM; in assay [4] (exposure time 27 h), 114 ± 44 mM; in assay [6] (exposure time 2 h), 104 ± 40 mM; in assay [6] (exposure time 27 h), 140 ± 0 mM. Also, the “eradication of the biofilm cultures with extended exposure times” value (from here on “eradication of the biofilm cultures”) in [5] is on record as “complete eradication”.

For `O.O.O.O.O.O=S(=O)([O-])[O-].[Cu+2]` [Cu^2+, cupric sulphate], in assay [7], the “effect on the efficacy of the polycide” value is on record as “quadruple”. In addition, the “Fold Tolerance (MBEC:MBC100)” value was determined as 2.0 in assay [4] (exposure time 8 to 10 h); 2.0 in assay [4] (exposure time 4 h); 1.7 in assay [4] (exposure time 6 h); 1.1 in assay [4] (exposure time 27 h); 4.5 in [6] (exposure time 2 h); 1.0 in assay [6] (exposure time 27 h). For the same compound, the MBEC in assay [4] (exposure time 8 to 10 h) was 32 ± 0 mM; in [4] (exposure time 2 h), “≧258 mM”; in assay [4] (exposure time 4 h) it was 64 ± 45 mM; in assay [4] (exposure time 6 h), 36 ± 20 mM; in assay [4] (exposure time 27 h), 21 ± 11 mM; in assay [8] (E. coli JM109 biofilm), 13 ± 4 mM. The MBEC was 14 ± 4.0 mM in assay [9] (P. aeruginosa ATCC 27853 biofilm); 1024 µg/mL in assay [2] (setting [13]); 72 ± 40 mM in [6] (exposure time 2 h); 16 ± 0 mM in assay [6] (exposure time 27 h); 2.0 ± 0 mM in [10] (S. aureus ATCC 29213 biofilm). Moreover, the MIC in assay [4] was 3.8 ± 1.9 mM; in assay [8] (E. coli JM109), 4.5 ± 1.4 mM; in assay [9] (P. aeruginosa ATCC 27853) it was 12 ± 5 mM; in assay [2] (setting [13]), 512 to 1024 µg/mL; in assay [6] it was 12 ± 5 mM; in assay [10] (S. aureus ATCC 29213), 2.0 ± 0 mM. In addition, the MBC100 in [4] (exposure time 8 to 10 h) is 16 ± 0 mM; in assay [4] (exposure time 2 h), 20 ± 8 mM; in [4] (exposure time 4 h), 32 ± 0 mM; in [4] (exposure time 6 h) it was 21 ± 14 mM; in assay [4] (exposure time 27 h) it was 19 ± 11 mM; in [6] (exposure time 2 h) it was 16 ± 0 mM. For the same compound, the MBC100 in [6] (exposure time 27 h) is 16 ± 0 mM. Further, the MBC in assay [8] (E. coli JM109 planktonic) came to 15 ± 3 mM; in assay [9] (P. aeruginosa ATCC 27853 planktonic), 14 ± 4.0 mM; in [2] (setting [13]), 1024 µg/mL; in [10] (S. aureus ATCC 29213 planktonic), 2.0 ± 0 mM. Moreover, in [5], the “eradication of the biofilm cultures” value was “complete eradication”.

As for lead nitrate [Pb^2+], the “Fold Tolerance (MBEC:MBC100)” value in assay [4] (exposure time 2 to 4 h) is recorded as 4.0; in assay [4] (exposure time 6 h), 3.0; in assay [4] (exposure time 8 h) it was 4.9; in assay [4] (exposure time 10 h), 3.0; in [4] (exposure time 27 h) it was 1.6; in assay [6] (exposure time 27 h), 0.7. The MBEC entry is “≧79 mM” in [4] (exposure time 2 to 4 h); “≧79 mM” in assay [4] (exposure time 6 h); 59 ± 23 mM in assay [4] (exposure time 8 h); 59 ± 23 mM in [4] (exposure time 10 h); 26 ± 15 mM in assay [4] (exposure time 27 h); greater than 40 mM in assay [6] (exposure time 2 h). For the same compound, the MBEC in assay [6] (exposure time 27 h) came to 59 ± 23 mM. Besides, the MIC in assay [4] was found to be 1.2 ± 0 mM; in assay [6], 12 ± 5 mM. In addition, the MBC100 in [4] (exposure time 2 to 4 h) is given as 20 ± 0 mM; in assay [4] (exposure time 6 h) it was 30 ± 11 mM; in [4] (exposure time 8 h), 12 ± 5 mM; in assay [4] (exposure time 10 h), 20 ± 0 mM; in assay [4] (exposure time 27 h), 16 ± 6 mM; in [6] (exposure time 2 h), greater than 40 mM. For the same compound, the “eradication of the biofilm cultures” value in [5] was “complete eradication”.

With `O=C(N[C@H](CO)[C@H](O)c1ccc([N+](=O)[O-])cc1)C(Cl)Cl` [Chloramphenicol], the values for the MBEC in [1], in assay [11] (E. coli JM109 biofilm) and in assay [3] were greater than 1024 µg/mL, greater than 256 µg/mL and greater than 512 µg/mL, respectively. Moreover, the MIC in assay [1] (Staphylococcus aureus, ATCC29213, read-out: MIC) is 80 ± 32 µg/mL (≈ 248 µM); in assay [11] (Escherichia coli, E. coli JM109, read-out: MIC), 3.5 ± 1 µg/mL (≈ 10.8 µM); in [3] (Pseudomonas aeruginosa, ATCC27853, read-out: MIC), greater than 512 µg/mL. Moreover, the MBC in assay [1] (Staphylococcus aureus, ATCC29213, read-out: MBC) was 1020 µg/mL (≈ 3170 µM); in assay [11] (Escherichia coli, E. coli JM109 planktonic, read-out: MBC) it was 128 µg/mL (≈ 396 µM); in assay [3] (Pseudomonas aeruginosa, ATCC27853, read-out: MBC), greater than 512 µg/mL.
